# Laboratory results from patent publication US20120094958A1, “QUINOLINES AS INHIBITORS OF FARNESYL PYROPHOSPHATE SYNTHASE” (NOVARTIS AG, priority 2008, published 2012).
# Where two headings read alike, the source gives them in different places.
# Molecular target: T1, Recombinant human Farnesyl Pyrophosphate synthase (FPPS) (Homo sapiens, UniProt P14324)
# T1 construct: made in house
# T1 sequence (P14324 1-353 isoform P14324-2): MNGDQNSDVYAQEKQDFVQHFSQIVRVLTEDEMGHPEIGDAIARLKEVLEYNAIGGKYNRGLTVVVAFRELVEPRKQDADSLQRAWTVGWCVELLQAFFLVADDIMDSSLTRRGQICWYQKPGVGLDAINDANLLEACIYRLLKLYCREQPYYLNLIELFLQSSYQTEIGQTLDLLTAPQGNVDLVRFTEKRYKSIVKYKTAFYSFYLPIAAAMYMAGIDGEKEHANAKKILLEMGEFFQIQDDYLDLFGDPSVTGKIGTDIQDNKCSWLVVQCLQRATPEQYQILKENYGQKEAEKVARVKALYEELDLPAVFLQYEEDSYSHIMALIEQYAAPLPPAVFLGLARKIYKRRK
# Experiment: FPPS enzyme assay, scintillation proximity (FlashPlate)
# Type: biochemical
# [1] = FlashPlate SPA, GPP 150 nM, [3H]-IPP 150 nM, FPPS 500 pM, 45 minutes at room temperature, highest concentration tested 100 μM, read-out: FPPS IC50
Molecule,IC50 [1] [µM],IC50 [µM]
O=C(O)c1ccc2cccc(-c3cccc4[nH]ccc34)c2n1 [Example 2.a.ii],–,6.5
rac. 2-[(amino-sulfonyl)-amino]-3-[(8-naphthalen-1-yl-quinoline-2-carbonyl)-amino]-propionic acid [Example 15.b],54.3,–
O=C(OCc1ccccc1)c1ccc2cccc(-c3cccc4ncccc34)c2n1 [Example 2.c.i],> 10,–
"O=C(O)c1ccc2cccc(-c3cccc4ccccc34)c2n1 [Example 1, 8-Naphthalen-1-quinoline-2-carboxylic acid]",0.52,–
"O=[N+]([O-])c1cc(-c2cccc3ccccc23)c2nc(NCP(=O)(O)O)ccc2c1 [Example 6, [(6-Nitro-8-naphthalen-1-yl-quinolin-2-ylamino)-methyl]-phosphonic acid]",14,–
"CCOP(=O)(CNc1ccc2cc(-c3ccn([Si](C(C)C)(C(C)C)C(C)C)c3)cc(-c3cccc4ccccc34)c2n1)OCC [Example 9.1, {[8-Naphthalen-1-yl-6-(1-triisopropylsilanyl-1H-pyrrol-3-yl)-quinolin-2-ylamino]-methyl}-phosphonic acid diethyl ester]",> 100,–
"O=C(NCP(=O)(O)O)c1ccc2cccc(-c3cccc4ccccc34)c2n1 [Example 3, {[(8-Naphthalen-1-yl-quinoline-2-carbonyl)-amino]-methyl}-phosphonic acid]",40.3,–
"COC(=O)C(CNC(=O)c1ccc2cccc(-c3cccc4ccccc34)c2n1)NS(=O)(=O)NC(=O)OC(C)(C)C (racemic) [Example 13, rac. 2-[(tert-Butoxycarbonylamino-sulfonyl)-amino]-3-[(8-naphthalen-1-yl-quinoline-2-carbonyl)-amino]-propionic acid methyl ester]",13.5,–
O=C(O)c1ccc2cccc(-c3cccc4[nH]c(=O)ccc34)c2n1 [Example 2.g.ii],> 100,–
"CCOP(=O)(CNc1ccc2cc(-c3cccnc3)cc(-c3cccc4ccccc34)c2n1)OCC [Example 10.1, [(8-Naphthalen-1-yl-6-pyridin-3-yl-quinolin-2-ylamino)-methyl]-phosphonic acid diethyl ester]",2.8,–
O=C(O)c1ccc2cccc(-c3cccc4ncccc34)c2n1 [Example 2.c.ii],2.7,–
O=C(OCc1ccccc1)c1ccc2cccc(-c3cccc4[nH]c(=O)ccc34)c2n1 [Example 2.g.i],19.7,–

# Continued, in another order:
IC50 [1] [µM],Molecule,IC50 [µM]
0.007,"O=P(O)(O)/C=C/c1ccc2cccc(-c3cccc4ccccc34)c2n1 [Example 40, [(E)-2-(8-Naphthalen-1-yl-quinolin-2-yl)-vinyl]-phosphonic acid]",–
21.5,"O=P(O)(O)CNc1ccc2cc(-c3cc[nH]c3)cc(-c3cccc4ccccc34)c2n1 [Example 9, {[8-Naphthalen-1-yl-6-(1H-pyrrol-3-yl)-quinolin-2-ylamino]-methyl}-phosphonic acid]",–
> 100,"O=C(NCC1NS(=O)(=O)NC1=O)c1ccc2cccc(-c3cccc4ccccc34)c2n1 (racemic) [Example 15.a, rac. 8-Naphthalen-1-yl-quinoline-2-carboxylic acid (1,1,4-trioxo-1lambda*6*-[1,2,5]thiadiazolidin-3-ylmethyl)-amide]",–
0.34,"O=C(O)c1ccc2cc(Cl)cc(-c3cccc4ccccc34)c2n1 [Example 54, 6-Chloro-8-naphthalen-1-yl-quinoline-2-carboxylic acid]",–
7.9,"O=P(O)(O)Cc1ccc2cccc(-c3cccc4ccccc34)c2n1 [Example 11, (8-Naphthalen-1-yl-quinolin-2-ylmethyl)-phosphonic acid]",–
39.7,"COC(=O)C(CNC(=O)c1ccc2cccc(-c3cccc4ccccc34)c2n1)NS(N)(=O)=O (racemic) [Example 14, rac. 2-[(Amino-sulfonyl)-amino]-3-[(8-naphthalen-1-yl-quinoline-2-carbonyl)amino]-propionic acid methyl ester]",–
0.14,"O=C(O)c1ccc2cc(-c3ccc[nH]3)cc(-c3cccc4ccccc34)c2n1 [Example 36, 8-Naphthalen-1-yl-6-pyrrol-2-yl-quinoline-2-carboxylic acid]",–
